Measurements: US7723023B2, “Use of intrinsic reporters of cell signaling for high content drug profiling and toxicity screening” (Mount Sinai School of Medicine, priority 2001, dated 2010)

Columns and labels:
[1] = tested on: serotonin 5-HT2A receptor; experiment: Early gene expression in mouse somatosensory cortex after drug injection, real-time PCR; type: in vivo; settings: 1 h after i.p. exposure
[2] = tested on: human serotonin 5-HT2A receptor; experiment: Gene response landscape of IRCs in HEK293 cells expressing 5-HT2A receptor; type: cell-based; settings: 10 genes, 8 concentrations, 1 hour, HEK293 cells expressing 5-HT2A receptors
Method: FIG. 6 is the gene response landscape for 5-HT and DOI in HEK293 cells expressing 5-HT2A receptors. The levels of gene induction in response to 8 concentrations of each agonist for 10 genes were determined in quadruplicate samples. The height of each peak represents the level of gene induction, expressed as fold-change. […] For example, the rightmost peak is highest with DOI exposure, but is lower with 5-HT exposure.
HEK293 cells were genetically engineered to stably express the human serotonin 5-HT2A receptor. Replicate aliquots of cells were treated with varying concentrations of 5-HT and DOI and the levels of a panel of IRCS after 1 hour exposure were determined by SYBR® green real-time PCR.

[3] = tested on: PC12 cells that stably express the dopamine D2 receptor; settings: 200 μM H2O2, 1 h, PC12-D2R cells
Method: Early genes β-actin, PC3, c-fos, and egr1 were assayed by real-time PCR.

PC12 cells [4] = experiment: Cell death of PC12 cells under oxidative stress (Caspase 3 activity, MTT assay); type: cell-based, rat
Method: (§1) This level of oxidative stress induced by H2O2 leads to cell death via apoptosis, as determined by increased Caspase 3 activity by 8 hours and a reduced MTT assay response at 24 hours. […] This would allow the prediction of the toxicity of a candidate drug in this cellular target by comparison of the pattern obtained with this drug to those observed with known toxins. Thus the toxins would generate a library of reference landscapes that would serve as predictors of the effects of candidate drugs. The comparison between candidate compounds and reference landscapes could be achieved by representing each IRC at one concentration as a different axis in a conceptual multidimensional space (or matrix) and determining the Euclidean distance between the location of the candidate response profile and that of the reference landscape. Candidates that are closer to the position of known toxins would be predicted to have a higher likelihood of inducing similar toxicity at the corresponding concentrations.

PC12 cells [5] = experiment: IRC (c-fos, egr1) response to cytotoxin in PC12 cells by real-time PCR; type: cell-based, rat; settings: 200 μM H2O2, 1 hour exposure
Method: The values shown are mean±s.e.m.
The samples assayed were the same as those used to generate FIG. 7.
as §1

| Compound | Induction of the 8 early genes in serotonin 5HT2A receptor gene-knockout mouse [1] | Level of gene induction (fold-change) compared with 5-HT [2] | Early genes induced (β-actin, PC3, c-fos, egr1 assayed) [3] | MTT assay response (PC12 cells [4]; 200 μM H2O2, at 24 hours) | Caspase 3 activity (PC12 cells [4]; 200 μM H2O2, by 8 hours) | cfos mRNA level (PC12 cells [5]) | egr1 mRNA level (PC12 cells [5]) |
| --- | --- | --- | --- | --- | --- | --- | --- |
| COc1cc(CC(C)N)c(OC)cc1I (centres unmarked) [DOI] | no induction was observed | generally lower responses | – | – | – | – | – |
| OO [H2O2] | – | – | Three genes were found to be induced at 1 h: PC3, c-fos, and egr1 | reduced | increased | marked increase | marked increase |
| CCN(CC)C(=O)[C@@H]1C=C2c3cccc4[nH]cc(c34)C[C@H]2N(C)C1 [LSD] | no induction was observed | – | – | – | – | – | – |
